# Several values for one entry are separate records, joined by “and”; a condition that tells them apart may be missing. Equal values may be shown once. Read-outs that look alike come from different tables or passages of the source.
# Test system: NCI-60 standardized human tumor cell line panel
# Assay: cells
# Format: cell-based
structure (smiles),measurement,setting,value
COc1cc2cc(C(=O)N3C[C@@H](CCl)c4c3cc(OC(=O)N(CCC(=O)N3CCN(C)CC3)C3CCCCC3)c3ccccc43)[nH]c2c(OC)c1OC [P-CC60-CBI-TMI],GI50,"SN12C, read-out: GI50",1.2 µM
same,GI50,"SNB-19, read-out: GI50",2.2 µM
same,GI50,"SR, read-out: GI50",0.28 µM
same,GI50,"SW-620, read-out: GI50",1.9 µM
same,GI50,"T-47D, read-out: GI50",1.9 µM
same,NCI-60 screening: Log(GI50),"TK-10 (RE) cell line, log10 of GI50 in M",-5.55
same,GI50,"TK-10 (RE) cell line, read-out: NCI-60 screening: Raw GI50",2.8 µM
same,GI50,"TK-10, read-out: GI50",2.8 µM
same,GI50,"U251, read-out: GI50",1.5 µM
same,GI50,"UACC-62, read-out: GI50",1.5 µM
same,GI50,"UACC-257, read-out: GI50",2 µM
same,NCI-60 screening: Log(GI50),"cell line A549/ATCC (LC:A549/ATCC), TMI sheet",-5.7
same,GI50,"cell line A549/ATCC (LC:A549/ATCC), TMI sheet, read-out: NCI-60 screening: Raw GI50",2 µM
same,NCI-60 screening: Log(GI50),"cell line BT-549 (BR:BT-549), TMI sheet",-5.8
same,GI50,"cell line BT-549 (BR:BT-549), TMI sheet, read-out: NCI-60 screening: Raw GI50",1.6 µM
same,NCI-60 screening: Log(GI50),"cell line CCRF-CEM (LE:CCRF-CEM), TMI sheet",-6
same,NCI-60 screening: Log(GI50),"cell line COLO 205 (CO:COLO 205), TMI sheet",-5.86
same,GI50,"cell line COLO 205 (CO:COLO 205), TMI sheet, read-out: NCI-60 screening: Raw GI50",1.4 µM
same,NCI-60 screening: Log(GI50),"cell line EKVX (LC:EKVX), TMI sheet",-5.71
same,GI50,"cell line EKVX (LC:EKVX), TMI sheet, read-out: NCI-60 screening: Raw GI50",1.9 µM
same,NCI-60 screening: Log(GI50),"cell line HCC-2998 (CO:HCC-2998), TMI sheet",-5.82
same,GI50,"cell line HCC-2998 (CO:HCC-2998), TMI sheet, read-out: NCI-60 screening: Raw GI50",1.5 µM
same,NCI-60 screening: Log(GI50),"cell line HCT-15 (CO:HCT-15), TMI sheet",-5.76
same,GI50,"cell line HCT-15 (CO:HCT-15), TMI sheet, read-out: NCI-60 screening: Raw GI50",1.7 µM
same,NCI-60 screening: Log(GI50),"cell line HCT-116 (CO:HCT-116), TMI sheet",-5.82
same,GI50,"cell line HCT-116 (CO:HCT-116), TMI sheet, read-out: NCI-60 screening: Raw GI50",1.5 µM
same,NCI-60 screening: Log(GI50),"cell line HL-60(TB) (LE:HL-60(TB)), TMI sheet",-6.12
same,NCI-60 screening: Log(GI50),"cell line HOP-62 (LC:HOP-62), TMI sheet",-6.23
same,GI50,"cell line HOP-62 (LC:HOP-62), TMI sheet, read-out: NCI-60 screening: Raw GI50",0.59 µM
same,NCI-60 screening: Log(GI50),"cell line HOP-92 (LC:HOP-92), TMI sheet",-5.6
same,NCI-60 screening: Log(GI50),"cell line HT29 (CO:HT29), TMI sheet",-5.82
same,GI50,"cell line HT29 (CO:HT29), TMI sheet, read-out: NCI-60 screening: Raw GI50",1.5 µM
same,NCI-60 screening: Log(GI50),"cell line K-562 (LE:K-562), TMI sheet",-6.17
same,NCI-60 screening: Log(GI50),"cell line KM12 (CO:KM12), TMI sheet",-5.68
same,GI50,"cell line KM12 (CO:KM12), TMI sheet, read-out: NCI-60 screening: Raw GI50",2.1 µM
same,NCI-60 screening: Log(GI50),"cell line LOX IMVI (ME:LOX IMVI), TMI sheet",-5.96
same,GI50,"cell line LOX IMVI (ME:LOX IMVI), TMI sheet, read-out: NCI-60 screening: Raw GI50",1.1 µM
same,NCI-60 screening: Log(GI50),"cell line M14 (ME:M14), TMI sheet",-5.82
same,GI50,"cell line M14 (ME:M14), TMI sheet, read-out: NCI-60 screening: Raw GI50",1.5 µM
same,NCI-60 screening: Log(GI50),"cell line MALME-3M (ME:MALME-3M), TMI sheet",-5.8
same,GI50,"cell line MALME-3M (ME:MALME-3M), TMI sheet, read-out: NCI-60 screening: Raw GI50",1.6 µM
same,NCI-60 screening: Log(GI50),"cell line MCF7 (BR:MCF7), TMI sheet",-6.5
same,NCI-60 screening: Log(GI50),"cell line MDA-MB-435 (ME:MDA-MB-435), TMI sheet",-5.75
same,NCI-60 screening: Log(GI50),"cell line MOLT-4 (LE:MOLT-4), TMI sheet",-6.23
same,GI50,"cell line MOLT-4 (LE:MOLT-4), TMI sheet, read-out: NCI-60 screening: Raw GI50",0.59 µM
same,NCI-60 screening: Log(GI50),"cell line NCI-H23 (LC:NCI-H23), TMI sheet",-6.33
same,NCI-60 screening: Log(GI50),"cell line NCI-H226 (LC:NCI-H226), TMI sheet",-5.84
same,GI50,"cell line NCI-H226 (LC:NCI-H226), TMI sheet, read-out: NCI-60 screening: Raw GI50",1.4 µM
same,NCI-60 screening: Log(GI50),"cell line RPMI-8226 (LE:RPMI-8226), TMI sheet",-5.83
same,GI50,"cell line RPMI-8226 (LE:RPMI-8226), TMI sheet, read-out: NCI-60 screening: Raw GI50",1.5 µM
same,NCI-60 screening: Log(GI50),"cell line SF-268 (CNS:SF-268), TMI sheet",-5.81
same,GI50,"cell line SF-268 (CNS:SF-268), TMI sheet, read-out: NCI-60 screening: Raw GI50",1.5 µM
same,NCI-60 screening: Log(GI50),"cell line SF-295 (CNS:SF-295), TMI sheet",-5.81
same,GI50,"cell line SF-295 (CNS:SF-295), TMI sheet, read-out: NCI-60 screening: Raw GI50",1.5 µM
same,NCI-60 screening: Log(GI50),"cell line SF-539 (CNS:SF-539), TMI sheet",-5.88
same,NCI-60 screening: Log(GI50),"cell line SK-MEL-5 (ME:SK-MEL-5), TMI sheet",-5.79
same,GI50,"cell line SK-MEL-5 (ME:SK-MEL-5), TMI sheet, read-out: NCI-60 screening: Raw GI50",1.6 µM
same,NCI-60 screening: Log(GI50),"cell line SK-MEL-28 (ME:SK-MEL-28), TMI sheet",-5.45
same,NCI-60 screening: Log(GI50),"cell line SNB-19 (CNS:SNB-19), TMI sheet",-5.65
same,GI50,"cell line SNB-19 (CNS:SNB-19), TMI sheet, read-out: NCI-60 screening: Raw GI50",2.2 µM
same,NCI-60 screening: Log(GI50),"cell line SR (LE:SR), TMI sheet",-6.56
same,NCI-60 screening: Log(GI50),"cell line SW-620 (CO:SW-620), TMI sheet",-5.72
same,GI50,"cell line SW-620 (CO:SW-620), TMI sheet, read-out: NCI-60 screening: Raw GI50",1.9 µM
same,NCI-60 screening: Log(GI50),"cell line T-47D (BR:T-47D), TMI sheet",-5.72
same,GI50,"cell line T-47D (BR:T-47D), TMI sheet, read-out: NCI-60 screening: Raw GI50",1.9 µM
same,NCI-60 screening: Log(GI50),"cell line U251 (CNS:U251), TMI sheet",-5.82
same,GI50,"cell line U251 (CNS:U251), TMI sheet, read-out: NCI-60 screening: Raw GI50",1.5 µM
same,NCI-60 screening: Log(GI50),"cell line UACC-62 (ME:UACC-62), TMI sheet",-5.82
same,GI50,"cell line UACC-62 (ME:UACC-62), TMI sheet, read-out: NCI-60 screening: Raw GI50",1.5 µM
same,NCI-60 screening: Log(GI50),"cell line UACC-257 (ME:UACC-257), TMI sheet",-5.7
same,GI50,"cell line UACC-257 (ME:UACC-257), TMI sheet, read-out: NCI-60 screening: Raw GI50",2 µM
same,GI50,read-out: GI50,1.5 µM and 2.4 µM
same,GI50,read-out: NCI-60 screening: Raw GI50,1.5 µM

# Reference: PMC10141580, “Cyclic Dichalcogenides Extend the Reach of Bioreductive Prodrugs to Harness Thiol/Disulfide Oxidoreductases: Applications to seco-Duocarmycins Targeting the Thioredoxin System” (ACS Central Science, 2023)
